The values below come from patent US7879852B2, “Melanocortin receptor agonists” (LG Life Sciences Ltd., priority 2006, dated 2011).

pEC50: −log10 of the molar value.

T1 sequence (P32245 whole entry): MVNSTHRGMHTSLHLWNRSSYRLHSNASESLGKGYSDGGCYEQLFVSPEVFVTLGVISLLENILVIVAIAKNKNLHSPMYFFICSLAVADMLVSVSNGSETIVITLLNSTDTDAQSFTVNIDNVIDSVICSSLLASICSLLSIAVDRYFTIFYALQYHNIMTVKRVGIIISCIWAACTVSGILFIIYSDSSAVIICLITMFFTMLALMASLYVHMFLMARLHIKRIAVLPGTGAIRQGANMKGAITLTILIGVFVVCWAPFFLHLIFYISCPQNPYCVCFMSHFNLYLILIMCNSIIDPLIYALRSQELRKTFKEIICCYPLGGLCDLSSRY

The assay has as its target T1, human melanocortin receptor 4 (MC4R) (Homo sapiens, UniProt P32245).
T1 construct: expressed in transfected cells; grown with 200 ug/ml Geneticin
In words: Luciferase assay. The note with it: agonistic activity at MC4R (Table 18); patent does not state whether luciferase or cAMP assay. The assay is classed as cell-based. As to the method:
Cell lines expressing human melanocortin receptor 4 (MC4R) were dissociated from tissue culture dishes by rinsing with Ca^++, Mg^++ free DPBS, treated with 1× Trypsin/EDTA solution for 1 min at 37° C., and resuspended with DMRM (GIBCO-BRL) supplemented with 10% FBS. The cells were counted and diluted with DMEM supplemented with 10% FBS and 200 ug/ml of Geneticin to […]. 90 ul of cell suspension was plated onto each well of 96-well black and clear bottom culture plates (Costar). After the incubation for 24 h in the atmosphere of 6% CO2 at 37° C., 10 ul of NDP-MSH and test compounds diluted in DMSO were added to each well. The final DMSO concentration was 1%. After 4 h of incubation in the atmosphere of 6% CO2 at 37° C., 50 ul of Bright-Glo (Promega) was added to each well. Luciferase activity was measured by using L-Max luminometer (Molecular Device). The amount of luciferase activity induced by treatment with NDP-MSH was defined as 100% to obtain the relative efficacy of test compounds. The EC0.5 MSH was defined as the concentration of test compounds that results in half maximal activity of NDP-MSH. The EC50 was defined as the concentration of test compound that results in half maximal activity of its own.
A general note: Changes in cAMP serve as a functional read-out for many G protein-coupled receptors.
In general, pEC50 refers to the EC50 on a negative log10 scale, so that one unit is a factor of ten. `CN(C)C(=O)[C@@H]1C[C@H](N(C(=O)C(C)(C)C)c2ccc(F)cc2F)CN1C(=O)[C@@H]1CN(C(C)(C)C)C[C@H]1c1ccc(Cl)cc1` [Example D1, (4S)-1-{[(3S,4R)-1-tert-butyl-4-(4-chlorophenyl)pyrrolidine-3-yl]carbonyl}-4-[(2,4-difluorophenyl)(2,2-dimethylpropanoyl)amino]-N,N-dimethyl-L-prolineamide]: the pEC50 was 7.33. In turn, `CC1(C)CCC(N(C(=O)C(C)(C)C)[C@H]2C[C@@H](CO)N(C(=O)[C@@H]3CN(C(C)(C)C)C[C@H]3c3ccc(Cl)cc3)C2)CC1` [Example B4, N-[(3S,5S)-1-{[(3S,4R)-1-tert-butyl-4-(4-chlorophenyl)pyrrolidine-3-yl]carbonyl}-5-(hydroxymethyl)pyrrolidine-3-yl]-N-(4,4-dimethylcyclohexyl)-2,2-dimethylpropaneamide] showed a pEC50 of 7.80. Molecule `CC(=O)C(C)(C)C(=O)N(C1CCC(C)(C)CC1)[C@H]1CCN(C(=O)[C@@H]2CN(C(C)(C)C)C[C@H]2c2ccc(Cl)cc2)C1` [Example C5, N-[(3S)-1-{[(3S,4R)-1-tertbutyl-4-(4-chlorophenyl)pyrrolidine-3-yl]carbonyl}pyrrolidine-3-yl]-N-(4,4-dimethylcyclohexyl)-2,2-dimethyl-3-oxobutaneamide] showed a pEC50 of 8.22. Then `COCC(C)(C)C(=O)N(C1CCC(F)(F)CC1)[C@H]1C[C@@H](C(=O)N(C)C)N(C(=O)[C@@H]2CN(C(C)(C)C)C[C@H]2c2ccc(Cl)cc2)C1` [Example C24], with 7.66. `CC1CCC(N(C(=O)c2ccoc2)C2CCN(C(=O)C3CNCC3c3ccc(Cl)cc3)C2)CC1` (centres unmarked) [Example E1-14] gave a pEC50 of 7.64.
